Experiments:
[1] = cited from earlier work; for pKa2: α-ammonium ion; for pKa1: α-carboxyl group; for pKa3: side chain group
[2] = Osmolality of defibrotide formulations with various buffers and excipients; type: physicochemical
Description: (§1) It is important for pharmaceutical preparations for oral or parenteral administration to be of low-viscosity and/or isotonic. In order to identify buffers or excipients that may lower the viscosity and/or osmolality of defibrotide formulations, a wide-panel screening of various buffers and excipients (including GRAS excipients) was performed using a 200 mg/mL defibrotide formulation.

[3] = Viscosity of defibrotide formulations with various buffers and excipients; type: physicochemical
Description: as §1

Q: With `C[C@@H](O)[C@H](N)C(=O)O` [Threonine] as the compound, how does the pI [1] read?
A: Its pI is 5.60.

Q: What about the pKa2 [1] of the same compound?
A: The pKa2 was 9.10.

Q: And the pKa1 [1]?
A: The pKa1 was 2.09.

Q: For `NC(=O)C[C@H](N)C(=O)O` [Asparagine], which pI [1] is on record?
A: The pI was 5.41.

Q: And the pKa2 [1]?
A: The pKa2 was 8.80.

Q: And the pKa1 [1]?
A: Its pKa1 is 2.02.

Q: Which results are given for `N[C@@H](Cc1ccccc1)C(=O)O` [Phenylalanine]?
A: pI [1]: 5.48; pKa2 [1]: 9.13; pKa1 [1]: 1.83

Q: For `N[C@@H](CS)C(=O)O` [Cysteine], which pI [1] is on record?
A: Its pI is 5.07.

Q: What about the pKa2 [1] of the same compound?
A: The pKa2 was 8.18.

Q: And the pKa1 [1]?
A: The pKa1 was 1.96.

Q: Which results are given for `CC(C)[C@H](N)C(=O)O` [Valine]?
A: pI [1]: 5.96; pKa2 [1]: 9.62; pKa1 [1]: 2.32

Q: For `N=C(N)NCCC[C@H](N)C(=O)O` [Arginine], which pI [1] is on record?
A: The pI was 10.76.

Q: What about the pKa3 [1] of the same compound?
A: Its pKa3 is 12.48.

Q: And the pKa2 [1]?
A: Its pKa2 is 9.04.

Q: And the pKa1 [1]?
A: Its pKa1 is 2.17.

Q: Which results are given for `NCCCC[C@H](N)C(=O)O` [Lysine]?
A: pI [1]: 9.74; pKa3 [1]: 10.53; pKa2 [1]: 8.95; pKa1 [1]: 2.18

Q: Which pI [1] does the source give for `CSCC[C@H](N)C(=O)O` [Methionine] here?
A: Its pI is 5.74.

Q: And the pKa2 [1]?
A: Its pKa2 is 9.21.

Q: And the pKa1 [1]?
A: Its pKa1 is 2.28.

Q: For `O=S(=O)(O)CCN1CCN(CCO)CC1` [HEPES buffer], which pKa value ([1]; buffer or excipient) is on record?
A: Its pKa value is 7.564.

Q: Which pKa2 [1] does the source give for `N[C@@H](Cc1c[nH]c2ccccc12)C(=O)O` [Tryptophan] here?
A: The pKa2 was 9.39.

Q: And the pKa1 [1]?
A: Its pKa1 is 2.83.

Q: Which results are given for `N[C@@H](CO)C(=O)O` [Serine]?
A: pI [1]: 5.68; pKa2 [1]: 9.15

Q: With `O=C(O)[C@@H]1CCCN1` [Proline] as the compound, how does the pI [1] read?
A: Its pI is 6.30.

Q: And the pKa2 [1]?
A: Its pKa2 is 10.6.

Q: And the pKa1 [1]?
A: Its pKa1 is 1.99.

Q: With `C[C@H](N)C(=O)O` [Alanine] as the compound, how does the pI [1] read?
A: Its pI is 6.00.

Q: What about the pKa2 [1] of the same compound?
A: Its pKa2 is 9.69.

Q: And the pKa1 [1]?
A: The pKa1 was 2.34.

Q: With Defibrotide as the compound, how does the “Effect of increasing the defibrotide concentration in the formulation on osmolality” value [2] read?
A: The value was “increase”.

Q: And the “Effect of increasing the defibrotide concentration in the formulation on viscosity” value [3]?
A: Its value is “increase”.

Q: Which pI [1] does the source give for `N[C@@H](Cc1ccc(O)cc1)C(=O)O` [Tyrosine] here?
A: Its pI is 5.66.

Q: Which results are given for `CC[C@H](C)[C@H](N)C(=O)O` [Isoleucine]?
A: pI [1]: 6.02; pKa2 [1]: 9.60; pKa1 [1]: 2.36

Source: patent US20220023533A1, “SUBCUTANEOUS DELIVERY OF HIGH CONCENTRATION FORMULATIONS” (JAZZ PHRMACETICALS IRELAND LIMITED, priority 2018, published 2022)
